Measured values as given in publication PMC12254266, “Multicolored sequential resonance energy transfer for detection of simultaneous ligand binding at G protein-coupled receptors” (Nature Communications, 2025).
Where “and” joins values, the source holds several entries; their conditions need not be identical. Equal entries are not always repeated. Where two headings read alike, the source gives them in different places.

Key:
Nluc-FFA1 = target: T1, Nluc-FFA1 (Homo sapiens, UniProt O14842); experiment: NanoBRET binding (saturation, competition, kinetics) at N terminal Nluc tagged FFA1
T1 construct: expressed in transfected cells
Experimental: Nluc-FFA1 or FFA1-Nluc Flp-In T-REx 293 cells were plated at 50,000 cells per well in poly-D-lysine coated white 96-well plates. Cells were cultured for 24 h in the plate before medium was replaced with medium containing 100 ng/mL of doxycycline to induce receptor expression. After culturing for a further 24 h, medium was removed, cells were washed with HBSS and incubated in HBSS for 30 min. To start the assay, NanoGlo substrate (Promega, N1110) was added to the cells at a 1:800 final dilution and incubated for 10 min at 37 °C. For endpoint assays, including both saturation and competition binding, test ligands were then added, including both fluorescent and unlabelled competing ligands as indicated, and plates incubated for a further 5 min at 37 °C. NanoBRET was then quantified in a CLARIOstar microplate reader (BMG Labtech) by measuring luminescent emission with the monochrometer set for the Nluc donor at 450–60 nm, and acceptor luminescent emission 540–60 nm (NBD), 600–80 nm (Cy3.5) or 690–100 nm (SulfoCy5), depending on which fluorophore was being tested. The acceptor/donor BRET ratio was then taken as a measure of fluorophore binding. For kinetic on then off NanoBRET experiments plates were washed the same way and substrate was added to the same concentration. However, 10 min after substrate was added plates were inserted into the CLARIOstar microplate reader set to 25 °C to take repeated measurements of luminescent emission for both the donor and the acceptor fluorophore being used. After 5 min of background measurements, the indicated concentration of fluorescent ligand was added using the plate reader injector and luminescent emission was monitored for ~10 min before the reader was paused to manually add a high concentration of appropriate competing ligand to initiate dissociation. The plate was returned to the reader and luminescence measurements were continued for a further 30 min to monitor dissociation of the fluorescent ligand. For kinetic experiments using multiple concentrations of fluorescent ligand, cells were placed in the plate reader immediately after the addition of Nano-Glo substrate and luminescent measurements were taken. After 5 min, the reader was paused to add the indicated concentrations of fluorescent ligand, before measurements were continued. To set non-specific binding for kinetic experiments, the indicated competing ligand was added 5 min before the addition of the fluorescent ligand.

FFA1-Nluc = FFA1-Nluc (Homo sapiens, UniProt O14842); experiment: Bystander BRET internalisation assay, FFA1-Nluc in HEK293T cells; assay type: cell-based; set-up: expressed in transfected cells; host or cells: HEK293T (ATCC, CRL-3216), transient; conditions: in words; up to 60 min
Experimental: Cells were transfected using a reverse transfection protocol while plating into a poly-D-lysine coated white 96-well plates. Cells were plated at 60,000 cells with 100 ng of plasmid DNA and 0.6 µg of polyethyleneimine (PEI) per well. Cells were cultured for 24 h before washing with HBSS and incubating in HBSS at 37 °C for 30 min. NanoGlo substrate was added a final 1:800 dilution and plates incubated for 10 min at 37 °C. […] After 5 min of baseline measurements, readings were paused and test compounds added to the plate.

FFA1 [1] = target: T2, FFA1 (Homo sapiens, UniProt O14842); experiment: Ca2+ mobilisation (Fura2) in Flp-In T-REx 293 cells expressing Nluc-FFA1, FFA1-Nluc or untagged FFA1; assay type: cell-based; set-up: expressed in transfected cells
Experimental: Nluc-FFA1, FFA1-Nluc or untagged FFA1 Flp-In T-REx 293 cells were plated at 50,000 cells per well in poly-D-lysine coated black clear bottom 96-well plates. Cells were then cultured for 24 h until reaching confluency before culture medium was replaced with medium containing 100 ng/mL of doxycycline to induce receptor expression. Cells were cultured for a further 24 h before the assay. On the day of the assay culture medium was removed and replaced with medium containing 3 μM Fura2-AM Ca^2+ dye. […] Fura2 fluorescent emission at 520 nm following excitation with each of 340 and 380 nm was measured in regular intervals both before and after adding test compounds for a total of 90 s per well. Calcium responses were determined by taking the peak 340/380 ratio after first subtracting the ratios obtained prior to addition of test compound.

FFA1 [2] = target: T2, FFA1; experiment: NanoBiT arrestin-3 recruitment in HEK293T cells; assay type: cell-based; set-up: expressed in transfected cells; host or cells: HEK293T, transient; conditions: ± SEM
Experimental: For arrestin-3 recruitment assays, HEK293T cells were transfected with FFA1 receptor and a bystander NanoBiT split luciferase arrestin-3 recruitment biosensor. Cells were transfected and plated simultaneously in a reverse transfection protocol into a poly-D-lysine coated white 96-well plate. Per well, 60,000 cells were transfected with 5 ng plasmid expressing LgBiT with a N-terminal Lyn11 plasma membrane localisation tag, 5 ng plasmid expressing bovine arrestin-3 fused at its N-terminal to SmBiT tag and 30 ng plasmid expressing the human FFA1 receptor. Total DNA was made up to 100 ng total/well with empty pcDNA3 vector and transfected to cell suspension with 0.6 µg/well PEI. Following transfection cells were cultured for 24 h before use. On the day of assay, cells were washed twice with HBSS and incubated in HBSS for 30 min at 37 °C. NanoGlo substrate was added at a final 1:800 dilution and incubated in the dark for 10 min at 37 °C. […] Raw luminescence values were divided by baseline signal (average of first 5 data points prior to compound addition) and vehicle measurements subtracted from agonist treatment. Area under curves were calculated and concentration response curves plotted.

[3] = Nluc-FFA1, multiple concentration of labelled ligand association model

T1 sequence (O14842 whole entry): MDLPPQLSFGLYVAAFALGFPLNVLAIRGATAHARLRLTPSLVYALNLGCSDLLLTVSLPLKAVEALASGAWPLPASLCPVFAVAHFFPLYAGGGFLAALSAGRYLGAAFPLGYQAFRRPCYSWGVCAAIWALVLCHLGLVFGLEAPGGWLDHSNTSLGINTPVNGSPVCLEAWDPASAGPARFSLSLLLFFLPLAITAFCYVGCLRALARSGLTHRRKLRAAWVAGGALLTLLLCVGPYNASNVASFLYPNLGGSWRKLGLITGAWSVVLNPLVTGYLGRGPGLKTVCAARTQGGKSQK
T2 sequence (O14842 whole entry): as above
Chain of FFA1-Nluc (O14842 whole entry): as above

SMILES: Cc1cc(OCCCNC(=O)CCCN2\C(=C/C=C/C=C/C3=[N+](C)c4ccc(S(=O)(=O)[O-])cc4C3(C)C)C(C)(C)c3ccccc32)ccc1-c1cccc(COc2ccc(CCC(=O)O)c(F)c2)c1 [TUG-2591]
- Kd (Nluc-FFA1; Nluc-FFA1, 95% confidence interval in parentheses, read-out: Kd, saturation BRET binding): 210 nM
- kOn Nano-BRET (Nluc-FFA1; Nluc-FFA1, association then dissociation model): 26666.67 M⁻¹ s⁻¹
- kOff Nano-BRET (Nluc-FFA1; Nluc-FFA1, association then dissociation model, TUG-2591 100 nM then TUG-905 10 μM, or TUG-2597 […] then T360 10 μM): 0.00683 s⁻¹
- Kd (Nluc-FFA1; Nluc-FFA1, association then dissociation model, read-out: Kd Nano-BRET (kinetic)): 250 nM
- kOff Nano-BRET Multiple Concentration (Nluc-FFA1; [3]): 0.0207 s⁻¹
- kOn Nano-BRET Multiple Concentration (Nluc-FFA1; [3]): 125000 M⁻¹ s⁻¹
- Kd (Nluc-FFA1; Nluc-FFA1, read-out: Kd Nano-BRET Multiple Concentration (kinetic)): 170 nM
- BMax, saturation BRET binding (Nluc-FFA1; Nluc-FFA1, specific BRET, 95% confidence interval in parentheses): 0.31 (0.27-0.37)
- kOff Nano-BRET Allosterism, Nluc-FFA1 (Nluc-FFA1; TUG-2591 (1 μM) in the presence of T360 (30μM), TUG-2597 (1 μM) in the presence of TUG-905 (30μM), 95% CI in parentheses): 0.034 (0.032-0.035) min-1
- Kd (Nluc-FFA1; footnotes of Supplementary Table 3, read-out: Kd values obtained in NanoBRET saturation experiments (used for pKi) (converted)): 200 nM
- off-rate, times faster in single ligand NanoBRET compared with dual ligand DISCo-BRET (Nluc-FFA1; ratio of off-rates): ~ 10
- internalization of FFA1-Nluc (FFA1-Nluc): No internalization
- pEC50 (FFA1 [1]; Ca2+ data, mean±SEM, NR = No response): 6.47±0.16
- Ca2+ Response as a % of T360 Response (FFA1 [1]; FFA1-Nluc cells, log[ligand] -6.5, technical replicates): 55.49% and 52.86% and 28.95% and 51.39% and 72.16% and 71.58% and 70.75% and 43.70% and 49.38%
- Ca2+ Response as a % of T360 Response (FFA1 [1]; FFA1-Nluc cells, log[ligand] -7, technical replicates): 8.16%
- Ca2+ Response as a % of T360 Response (FFA1 [1]; Nluc-FFA1 cells, log[ligand] -6.5, technical replicates): 34.81% and 37.98% and 35.96% and 31.33% and 37.74% and 35.87% and 21.49% and 18.21% and 19.57%
- Ca2+ Response as a % of T360 Response (FFA1 [1]; Nluc-FFA1 cells, log[ligand] -7, technical replicates): 17.82% and 28.31% and 29.67% and 8.27% and 1.38% and 7.74% and -0.10% and 0.12%
- Ca2+ Response as a % of T360 Response (FFA1 [1]; log[Ligand] -5, single technical replicates): 61.66% and 51.52% and 46.84% and 86.56% and 82.15% and 71.83% and 71.15% and 53.72%
- Ca2+ Response as a % of T360 Response (FFA1 [1]; log[Ligand] -5.5, single technical replicates): 62.71% and 47.16% and 58.62% and 85.53% and 80.90% and 77.51% and 55.09% and 51.22%
- Ca2+ Response as a % of T360 Response (FFA1 [1]; log[Ligand] -6, single technical replicates): 62.82% and 60.50% and 58.53% and 87.03% and 71.98% and 71.50% and 53.51% and 60.26% and 56.70%
- Ca2+ Response as a % of T360 Response (FFA1 [1]; log[Ligand] -6.5, single technical replicates): 34.81% and 37.98% and 35.96% and 31.33% and 37.74% and 35.87% and 21.49% and 18.21% and 19.57%
- Ca2+ Response as a % of T360 Response (FFA1 [1]; log[Ligand] -7, single technical replicates): 17.82% and 28.31% and 29.67% and 8.27% and 1.38% and 7.74% and -0.10% and 0.12% and -1.53%
- Ca2+ Response as a % of T360 Response (FFA1 [1]; log[Ligand] -8, single technical replicates): 10.54% and 11.17% and 19.68% and 8.20% and 7.07% and 9.22% and 0.11% and 1.85% and 0.30%
- Ca2+ Response as a % of T360 Response (FFA1 [1]; log[Ligand] -9, single technical replicates): 1.04% and 5.22% and 4.78% and 4.50% and 4.79% and 3.13% and 2.97% and -0.0331% and -1.56%
- EMax (FFA1 [1]; percentage of response to 10 μM T360, NR = No response): 73±9%
- Ca2+ Response as a % of T360 Response (FFA1 [1]; untagged FFA1 cells, log[ligand] -6.5, technical replicates): 69.40% and 67.64% and 73.36% and 82.87% and 85.96% and 73.97% and 51.16% and 43.14% and 56.15% and 83.71% and 86.53% and 111.93%
- EMax (% TUG-905) arrestin-3 recruitment (FFA1 [2]; percentage of the response to 10 μM TUG-905): 91 ± 6%
- pEC50 arrestin-3 recruitment (FFA1 [2]; N=3): 7.5 ± 0.4
